Columns and labels:
[1] = standard antioxidants, known parameter; cited from earlier work
[2] = activity against free radicals compared with SOD; assay type: biochemical
Excerpt: The Quebracho bark extract according to the invention or its hydrolysis product has a very high portion of proantho-cyanidines representing condensed tannins. […] The activity against free radicals was compared with that of SOD and found to be 42% for a 1 percent by weight solution of the extract (SOD 4%), 83% for a 2.5% by weight solution (SOD 15%)and 100% for a 5% by weight solution (SOD 38%). Preferably the extract (a) contains at least 95 percent by weight of proanthocyanidine oligomers and up to 5 percent by weight of gallic acid, in particular at least 99 percent by weight of proanthocyanidine oligomers and up to 1 percent by weight of gallic acid.

| Compound | radical protection factor (RPF) [1] | activity against free radicals ([2]; 1 percent by weight solution) | activity against free radicals ([2]; 2.5% by weight solution) | activity against free radicals ([2]; 5% by weight solution) |
| --- | --- | --- | --- | --- |
| Cc1c(C)c2c(c(C)c1O)CCC(C)(CCCC(C)CCCC(C)CCCC(C)C)O2 (racemic) [DL-α-tocopherol] | 41200 ×10^14 radicals/mg |  |  |  |
| CC(=O)Oc1c(C)c(C)c2c(c1C)CCC(C)(CCC[C@H](C)CCC[C@H](C)CCCC(C)C)O2 (stereo partly shown) [a-tocopherol acetate] | about 48 ×10^14 radicals/mg |  |  |  |
| CC(=O)OC/C=C(C)/C=C/C=C(C)/C=C/C1=C(C)CCCC1(C)C [all-trans retinal acetate] | 196 ×10^14 radicals/mg |  |  |  |
| CC1=C(/C=C/C(C)=C/C=C/C(C)=C/CO)C(C)(C)CCC1 [all-trans-retinole] | 827 ×10^14 radicals/mg |  |  |  |
| superoxide dismutase [SOD] |  | 4% | 15% | 38% |
